This note sets out measurements from ChEMBL document CHEMBL3792324, “Discovery of KDM5A inhibitors: Homology modeling, virtual screening and structure-activity relationship analysis” (Bioorg Med Chem Lett, 2016).

Calls of active or inactive are those of the source. The rule behind the calls is not given here.

The target of assay [1] is T1, Lysine-specific demethylase 5A (Homo sapiens, UniProt P29375). Nature of the assay: Inhibition of KDM5A (unknown origin) using substrate peptide/ascorbate/2-OG/ Fe(2) as substrate at 10 uM preincubated for 15 mins followed by addition of substrate peptide/ ascorbate/2-OG/ Fe(2) measured after 1 hr by AlphaLISA method.
In assay [2] the target is T1, Lysine-specific demethylase 5A. Nature of the assay: Inhibition of KDM5A (unknown origin) using substrate peptide/ascorbate/2-OG/ Fe(2) as substrate preincubated for 15 mins followed by addition of substrate peptide/ ascorbate/2-OG/ Fe(2) measured after 1 hr by AlphaLISA method. On the technique in general: In Alpha technology, singlet oxygen from a donor bead excites a nearby acceptor bead.

The target in assay [3] is Probable JmjC domain-containing histone demethylation protein 2C (Homo sapiens, UniProt Q15652). The assay can be described thus: Inhibition of KDM3C (unknown origin) using substrate peptide/ascorbate/2-OG/ Fe(2) as substrate preincubated for 15 mins followed by addition of substrate peptide/ ascorbate/2-OG/ Fe(2) measured after 1 hr by AlphaLISA method.
Assay [4] concerns the target Lysine-specific demethylase 5B (Homo sapiens, UniProt Q9UGL1). The assay can be described thus: Inhibition of KDM5B (unknown origin) using substrate peptide/ascorbate/2-OG/ Fe(2) as substrate preincubated for 15 mins followed by addition of substrate peptide/ ascorbate/2-OG/ Fe(2) measured after 1 hr by AlphaLISA method.
Assay [5] concerns the target Lysine-specific demethylase 6B (Homo sapiens, UniProt O15054). The assay can be described thus: Inhibition of KDM6B (unknown origin) using substrate peptide/ascorbate/2-OG/ Fe(2) as substrate preincubated for 15 mins followed by addition of substrate peptide/ ascorbate/2-OG/ Fe(2) measured after 1 hr by AlphaLISA method.
In assay [6] the target is T2, Lysine-specific demethylase 4E (Homo sapiens, UniProt B2RXH2).
T2 sequence (B2RXH2 whole entry): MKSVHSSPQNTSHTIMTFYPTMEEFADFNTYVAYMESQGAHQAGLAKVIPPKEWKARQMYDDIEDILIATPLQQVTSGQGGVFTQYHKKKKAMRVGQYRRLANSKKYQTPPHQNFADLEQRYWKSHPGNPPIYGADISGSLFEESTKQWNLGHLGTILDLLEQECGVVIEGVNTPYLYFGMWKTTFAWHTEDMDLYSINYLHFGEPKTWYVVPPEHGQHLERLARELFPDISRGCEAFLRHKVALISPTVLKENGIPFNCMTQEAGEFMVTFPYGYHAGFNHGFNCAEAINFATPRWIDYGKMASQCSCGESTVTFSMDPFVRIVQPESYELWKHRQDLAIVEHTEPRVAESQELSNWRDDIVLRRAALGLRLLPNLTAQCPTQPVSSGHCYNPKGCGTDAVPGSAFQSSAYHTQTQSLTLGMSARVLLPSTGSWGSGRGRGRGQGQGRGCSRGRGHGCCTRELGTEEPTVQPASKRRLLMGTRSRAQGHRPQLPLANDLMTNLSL
Nature of the assay: Inhibition of KDM4E (unknown origin) using substrate peptide/ascorbate/2-OG/ Fe(2) as substrate preincubated for 15 mins followed by addition of substrate peptide/ ascorbate/2-OG/ Fe(2) measured after 1 hr by AlphaLISA method.

In assay [7] the target is T3, Lysine-specific demethylase 3A (Homo sapiens, UniProt Q9Y4C1).
T3 sequence (Q9Y4C1 whole entry): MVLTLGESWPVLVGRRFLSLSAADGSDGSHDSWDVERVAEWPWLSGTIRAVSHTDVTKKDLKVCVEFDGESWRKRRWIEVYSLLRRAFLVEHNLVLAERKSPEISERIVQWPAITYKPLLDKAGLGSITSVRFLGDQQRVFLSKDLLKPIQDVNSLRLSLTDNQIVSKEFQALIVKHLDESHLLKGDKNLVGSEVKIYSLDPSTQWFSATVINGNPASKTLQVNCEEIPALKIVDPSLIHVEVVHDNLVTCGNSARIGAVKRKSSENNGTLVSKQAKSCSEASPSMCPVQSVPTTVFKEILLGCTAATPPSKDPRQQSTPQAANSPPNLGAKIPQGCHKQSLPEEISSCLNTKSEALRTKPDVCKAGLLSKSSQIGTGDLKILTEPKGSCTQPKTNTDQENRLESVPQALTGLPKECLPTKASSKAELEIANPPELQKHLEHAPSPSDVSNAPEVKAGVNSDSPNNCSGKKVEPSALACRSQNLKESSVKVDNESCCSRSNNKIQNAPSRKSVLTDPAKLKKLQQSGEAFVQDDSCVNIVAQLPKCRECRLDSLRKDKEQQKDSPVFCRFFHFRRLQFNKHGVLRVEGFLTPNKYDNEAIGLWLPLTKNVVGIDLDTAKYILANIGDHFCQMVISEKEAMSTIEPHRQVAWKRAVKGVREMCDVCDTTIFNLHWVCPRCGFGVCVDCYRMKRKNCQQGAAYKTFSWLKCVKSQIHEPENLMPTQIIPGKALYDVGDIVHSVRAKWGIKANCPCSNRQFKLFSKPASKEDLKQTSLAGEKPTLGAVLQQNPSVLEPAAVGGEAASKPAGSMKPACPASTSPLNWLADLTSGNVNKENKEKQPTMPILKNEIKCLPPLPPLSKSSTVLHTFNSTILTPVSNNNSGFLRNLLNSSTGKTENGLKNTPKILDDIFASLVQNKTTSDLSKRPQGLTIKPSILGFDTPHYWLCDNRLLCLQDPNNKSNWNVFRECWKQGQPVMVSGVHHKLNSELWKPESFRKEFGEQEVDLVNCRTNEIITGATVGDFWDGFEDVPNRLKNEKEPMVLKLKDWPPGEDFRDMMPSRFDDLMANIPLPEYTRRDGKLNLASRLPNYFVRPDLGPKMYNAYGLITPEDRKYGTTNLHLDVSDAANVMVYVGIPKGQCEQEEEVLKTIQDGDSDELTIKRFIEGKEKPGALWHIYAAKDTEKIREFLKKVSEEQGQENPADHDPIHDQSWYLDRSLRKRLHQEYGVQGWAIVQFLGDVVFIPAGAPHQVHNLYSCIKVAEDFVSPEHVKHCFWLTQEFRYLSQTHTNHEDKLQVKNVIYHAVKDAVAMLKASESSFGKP
The assay can be described thus: Inhibition of KDM3A (unknown origin) using substrate peptide/ascorbate/2-OG/ Fe(2) as substrate preincubated for 15 mins followed by addition of substrate peptide/ ascorbate/2-OG/ Fe(2) measured after 1 hr by AlphaLISA method.

Assay [8] has as its target T1, Lysine-specific demethylase 5A. The assay can be described thus: […] of KDM5A in human ZR-75-1 cells effect on H3K4me3 expression after 48 hrs by Western blot analysis. It counts as cell-based. On the technique in general: A western blot detects proteins with antibodies after separation by electrophoresis.

T1 sequence (P29375 whole entry): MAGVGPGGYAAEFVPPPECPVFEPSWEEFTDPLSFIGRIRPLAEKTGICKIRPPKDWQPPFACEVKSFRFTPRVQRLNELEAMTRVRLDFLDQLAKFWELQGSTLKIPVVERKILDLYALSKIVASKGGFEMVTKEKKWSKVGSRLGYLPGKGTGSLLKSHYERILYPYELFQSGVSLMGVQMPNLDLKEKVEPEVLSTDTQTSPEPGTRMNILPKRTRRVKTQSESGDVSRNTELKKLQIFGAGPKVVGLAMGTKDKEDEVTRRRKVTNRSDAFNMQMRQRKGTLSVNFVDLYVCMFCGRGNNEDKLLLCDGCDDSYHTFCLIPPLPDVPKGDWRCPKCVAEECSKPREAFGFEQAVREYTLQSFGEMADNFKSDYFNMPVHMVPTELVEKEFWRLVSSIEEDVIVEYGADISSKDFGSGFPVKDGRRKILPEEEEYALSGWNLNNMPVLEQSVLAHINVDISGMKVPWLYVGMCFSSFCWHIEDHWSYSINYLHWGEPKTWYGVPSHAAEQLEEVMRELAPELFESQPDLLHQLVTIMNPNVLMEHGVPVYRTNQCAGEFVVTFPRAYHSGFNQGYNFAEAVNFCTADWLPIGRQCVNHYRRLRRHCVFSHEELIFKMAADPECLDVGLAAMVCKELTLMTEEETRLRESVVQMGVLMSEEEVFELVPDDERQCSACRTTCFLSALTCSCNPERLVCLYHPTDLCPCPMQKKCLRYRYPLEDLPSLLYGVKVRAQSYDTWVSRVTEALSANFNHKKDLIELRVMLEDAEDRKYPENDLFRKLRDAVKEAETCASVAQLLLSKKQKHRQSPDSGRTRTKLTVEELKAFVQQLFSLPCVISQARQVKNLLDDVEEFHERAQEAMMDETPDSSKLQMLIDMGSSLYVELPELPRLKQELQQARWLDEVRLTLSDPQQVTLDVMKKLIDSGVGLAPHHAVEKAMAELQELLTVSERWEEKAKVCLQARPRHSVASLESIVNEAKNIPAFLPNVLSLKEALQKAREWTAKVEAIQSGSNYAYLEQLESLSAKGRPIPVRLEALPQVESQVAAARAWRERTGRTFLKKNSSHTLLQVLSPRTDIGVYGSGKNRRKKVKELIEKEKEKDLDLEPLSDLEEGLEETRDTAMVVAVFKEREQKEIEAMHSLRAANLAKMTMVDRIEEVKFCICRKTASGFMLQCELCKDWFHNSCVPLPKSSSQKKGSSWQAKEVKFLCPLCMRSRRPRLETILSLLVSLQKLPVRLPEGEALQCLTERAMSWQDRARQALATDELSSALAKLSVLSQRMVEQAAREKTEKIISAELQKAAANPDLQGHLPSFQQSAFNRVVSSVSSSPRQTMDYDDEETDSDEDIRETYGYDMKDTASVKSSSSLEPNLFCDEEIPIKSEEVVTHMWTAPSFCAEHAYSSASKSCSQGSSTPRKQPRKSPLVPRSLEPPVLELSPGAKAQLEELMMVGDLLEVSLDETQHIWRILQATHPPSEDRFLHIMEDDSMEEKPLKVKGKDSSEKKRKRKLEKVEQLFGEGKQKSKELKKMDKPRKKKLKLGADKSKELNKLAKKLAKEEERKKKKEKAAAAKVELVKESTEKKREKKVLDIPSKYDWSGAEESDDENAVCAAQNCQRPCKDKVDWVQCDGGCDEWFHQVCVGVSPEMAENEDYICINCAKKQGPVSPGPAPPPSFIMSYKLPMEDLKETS
Sequence of Lysine-specific demethylase 6B (O15054 whole entry): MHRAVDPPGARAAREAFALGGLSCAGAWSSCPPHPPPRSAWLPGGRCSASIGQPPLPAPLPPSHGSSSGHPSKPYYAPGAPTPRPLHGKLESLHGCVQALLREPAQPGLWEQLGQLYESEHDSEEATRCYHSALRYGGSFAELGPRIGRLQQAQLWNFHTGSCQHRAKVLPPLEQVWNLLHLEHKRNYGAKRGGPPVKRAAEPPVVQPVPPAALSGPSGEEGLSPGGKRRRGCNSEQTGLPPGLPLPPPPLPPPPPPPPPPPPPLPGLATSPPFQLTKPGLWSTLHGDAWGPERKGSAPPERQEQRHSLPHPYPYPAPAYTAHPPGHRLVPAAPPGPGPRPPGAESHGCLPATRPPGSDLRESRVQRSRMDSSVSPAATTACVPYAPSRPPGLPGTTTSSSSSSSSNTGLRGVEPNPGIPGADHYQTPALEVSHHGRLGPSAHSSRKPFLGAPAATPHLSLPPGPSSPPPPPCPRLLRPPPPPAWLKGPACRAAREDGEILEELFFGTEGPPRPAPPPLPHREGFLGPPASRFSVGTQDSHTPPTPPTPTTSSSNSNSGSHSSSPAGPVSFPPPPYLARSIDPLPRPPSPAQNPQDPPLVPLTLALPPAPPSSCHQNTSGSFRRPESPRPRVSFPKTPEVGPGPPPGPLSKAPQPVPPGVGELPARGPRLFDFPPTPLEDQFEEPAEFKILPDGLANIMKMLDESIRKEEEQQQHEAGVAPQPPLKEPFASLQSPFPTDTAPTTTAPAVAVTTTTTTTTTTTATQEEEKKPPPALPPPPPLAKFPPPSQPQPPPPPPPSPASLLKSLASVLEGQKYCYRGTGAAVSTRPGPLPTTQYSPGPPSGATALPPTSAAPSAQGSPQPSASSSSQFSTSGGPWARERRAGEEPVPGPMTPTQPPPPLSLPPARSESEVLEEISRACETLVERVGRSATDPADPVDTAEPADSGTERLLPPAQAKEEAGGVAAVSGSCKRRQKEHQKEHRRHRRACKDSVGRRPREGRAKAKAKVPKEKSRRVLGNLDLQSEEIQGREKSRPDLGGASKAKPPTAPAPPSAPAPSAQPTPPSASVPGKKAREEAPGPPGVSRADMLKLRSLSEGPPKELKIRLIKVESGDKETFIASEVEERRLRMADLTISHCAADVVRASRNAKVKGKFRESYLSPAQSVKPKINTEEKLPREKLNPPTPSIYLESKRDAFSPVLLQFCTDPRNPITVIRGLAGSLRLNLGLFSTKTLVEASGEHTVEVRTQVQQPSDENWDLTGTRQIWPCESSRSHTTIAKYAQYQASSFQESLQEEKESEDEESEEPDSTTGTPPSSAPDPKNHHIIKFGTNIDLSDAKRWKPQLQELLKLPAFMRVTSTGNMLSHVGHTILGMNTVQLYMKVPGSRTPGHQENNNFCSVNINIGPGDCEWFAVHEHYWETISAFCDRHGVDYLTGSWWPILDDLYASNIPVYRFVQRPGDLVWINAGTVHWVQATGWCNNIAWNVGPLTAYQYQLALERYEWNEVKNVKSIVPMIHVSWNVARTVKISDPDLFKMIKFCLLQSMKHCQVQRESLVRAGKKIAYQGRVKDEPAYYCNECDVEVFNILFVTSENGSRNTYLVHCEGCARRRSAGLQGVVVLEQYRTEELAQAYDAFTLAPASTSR
Sequence of Lysine-specific demethylase 5B (Q9UGL1 whole entry): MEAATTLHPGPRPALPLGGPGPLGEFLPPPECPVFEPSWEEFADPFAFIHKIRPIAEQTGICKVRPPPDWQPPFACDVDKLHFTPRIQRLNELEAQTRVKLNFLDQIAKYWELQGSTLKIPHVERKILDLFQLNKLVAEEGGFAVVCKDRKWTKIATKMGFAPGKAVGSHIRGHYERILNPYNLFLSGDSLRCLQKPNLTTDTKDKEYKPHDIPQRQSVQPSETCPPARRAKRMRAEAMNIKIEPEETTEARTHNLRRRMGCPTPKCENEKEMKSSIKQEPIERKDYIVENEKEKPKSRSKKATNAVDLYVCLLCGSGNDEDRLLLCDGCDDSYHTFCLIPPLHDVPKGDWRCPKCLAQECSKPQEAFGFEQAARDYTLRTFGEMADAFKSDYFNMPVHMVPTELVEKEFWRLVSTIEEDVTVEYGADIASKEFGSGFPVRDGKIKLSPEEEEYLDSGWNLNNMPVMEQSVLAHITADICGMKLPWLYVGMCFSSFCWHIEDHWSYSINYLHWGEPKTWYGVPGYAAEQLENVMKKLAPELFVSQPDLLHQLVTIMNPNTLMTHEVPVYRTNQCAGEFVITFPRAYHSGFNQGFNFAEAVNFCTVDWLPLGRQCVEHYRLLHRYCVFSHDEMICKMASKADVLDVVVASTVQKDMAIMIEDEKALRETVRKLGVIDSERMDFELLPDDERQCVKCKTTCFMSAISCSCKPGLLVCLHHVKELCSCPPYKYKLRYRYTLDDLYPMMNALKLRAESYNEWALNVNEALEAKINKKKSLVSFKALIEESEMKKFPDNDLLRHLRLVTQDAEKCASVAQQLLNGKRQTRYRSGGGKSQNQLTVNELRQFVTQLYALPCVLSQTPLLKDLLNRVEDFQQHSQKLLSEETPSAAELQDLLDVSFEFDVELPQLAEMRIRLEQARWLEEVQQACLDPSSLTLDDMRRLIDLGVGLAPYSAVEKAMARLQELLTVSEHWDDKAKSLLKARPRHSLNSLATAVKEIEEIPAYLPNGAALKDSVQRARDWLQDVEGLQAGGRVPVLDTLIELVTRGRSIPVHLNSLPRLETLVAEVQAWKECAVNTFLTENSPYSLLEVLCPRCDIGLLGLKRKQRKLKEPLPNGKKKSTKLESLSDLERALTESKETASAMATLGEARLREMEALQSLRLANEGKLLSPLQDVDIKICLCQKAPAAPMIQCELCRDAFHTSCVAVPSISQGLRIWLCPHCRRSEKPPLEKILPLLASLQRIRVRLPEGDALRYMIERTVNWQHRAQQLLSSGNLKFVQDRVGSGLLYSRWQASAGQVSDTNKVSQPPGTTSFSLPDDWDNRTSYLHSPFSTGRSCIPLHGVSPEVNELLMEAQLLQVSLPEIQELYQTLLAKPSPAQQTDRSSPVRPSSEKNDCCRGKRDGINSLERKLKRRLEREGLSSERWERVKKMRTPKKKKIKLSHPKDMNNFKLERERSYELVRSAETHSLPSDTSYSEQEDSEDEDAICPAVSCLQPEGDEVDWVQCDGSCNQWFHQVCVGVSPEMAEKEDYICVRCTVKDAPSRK

One may read the inhibition as the relative decrease from the control value, in per cent. `Oc1ccccc1/C=N/Nc1nccc(N2CCOCC2)n1`: the inhibition in assay [1] turned out to be 42%.

What is called IC50 is the concentration at which inhibition is half-maximal. On to `NNc1nccc(C(=O)O)n1`, for which the IC50 is 0.22 µM in assay [2]; 1.9 µM in assay [3]; above 100 µM in assay [4]; above 100 µM in assay [5]; 13 µM in assay [6]; 43 µM in assay [7]. For the same compound, in assay [1], the inhibition amounted to 99%.

As to `O=C(O)c1ccnc(N/N=C/c2ccco2)n1`, the inhibition in assay [1] turned out to be 3%.

On to `Oc1ccccc1/C=N/Nc1ncc(Cl)cn1`, for which the inhibition in assay [1] is 19%.

With `NNc1nccc(C(F)(F)F)n1`, the result in assay [8] was inactive.

For `NNc1ncccn1`, the inhibition in assay [1] came out at 8%.

For `NNc1nccc(Oc2ccc(F)cc2)n1`, in assay [8], the outcome was inactive.

As for `O=C(O)c1ccnc(N/N=C/c2ccccc2)n1`, the inhibition in assay [1] worked out at 0%.

`CCN(C1=C(Cl)C(=O)N(c2cccc(C)c2C)C1=O)c1ccccc1`: in assay [2], half-maximal inhibition (IC50) required 83 µM.

On to `NNc1nccc(Oc2ccccc2)n1`, for which the result in assay [8] was inactive.

Compound `O=C(COc1cc(O)c2c(=O)cc(-c3ccccc3)oc2c1)OCc1ccccc1` registered a 50% inhibitory concentration (IC50) in assay [2] of 4.2 µM.

In the case of `c1ccc(Cc2nnc3sc(-c4ccccn4)nn23)cc1`, the IC50 in assay [2] was determined as 25 µM.

As to `NNc1ncc(F)cn1`, the inhibition in assay [1] came out at 10%.

For `N#Cc1ccc(Nc2nc(NN)ncc2[N+](=O)[O-])cc1`, in assay [1], the inhibition amounted to 14%.

In the case of `O=c1c2ccccc2oc2c(O)ccc(O)c12`, the IC50 in assay [2] turned out to be 25 µM.

Take `NNc1ncc(F)c(N2CCOCC2)n1`: in assay [1], the inhibition came to 0%.

Regarding `NNc1nccc(N2CCOCC2)n1`, the result in assay [8] was inactive.

The compound `O=C1c2ccccc2C(=O)c2c1ccc1c(=O)n(-c3ccc(Cl)cc3)[nH]c21` gave an IC50 in assay [2] of 13 µM.

As for `Oc1ccccc1/C=N/Nc1ncc(F)cn1`, the result in assay [8] was inactive.

Regarding `O=C(NNc1c2ccccc2nc2ccccc12)c1ccccn1`, the midpoint of inhibition in assay [2], the IC50, lay at 7 µM.

As for `Oc1ccccc1/C=N/Nc1ncccn1`, in assay [1], the inhibition was 32%.

As to `NNc1ncc(Cl)cn1`, in assay [8], the result was inactive.

Turning to `O=C(O)c1ccnc(N/N=C/c2ccccc2O)n1`, the inhibition in assay [1] was found to be 88%.

The compound `NNC(=O)c1ccc(O)cc1` yielded an IC50 in assay [2] of 13 µM.

Regarding `CNc1ccccc(C(=O)/C=C/c2cccc(Oc3ccccc3)c2)c1=O`, the midpoint of inhibition in assay [2], the IC50, lay at 64 µM.

Consider `Cc1ccnc(N/N=C/c2ccccc2O)n1`, for which the inhibition in assay [1] worked out at 44%.

On to `Cc1ccc(C(=O)c2coc3c2C(=O)C(=O)C(Br)=C3)cc1`, for which, in assay [2], the IC50 stood at 5 µM.

For the compound `NNc1ncc2ccccc2n1`, in assay [8], the result was inactive.

For the compound `Cc1ccnc(NN)n1`, the outcome in assay [8] was inactive. Also, the inhibition in assay [1] is -6%.

In the case of `Oc1ccccc1/C=N/Nc1ncc(F)c(N2CCOCC2)n1`, half-maximal inhibition in assay [2] (IC50) was put at 2.3 µM. Also, in assay [1], the inhibition amounted to 58%.

`COc1ccc(Oc2ccnc(NN)n2)cc1`: the outcome in assay [8] was inactive.

For the compound `NNc1nccc(-c2cccc(C(=O)O)c2)n1`, the inhibition in assay [1] was determined as 26%.
